# What was measured:
# [1] = Stability in artificial gastric juice; assay type: in vitro ADME; conditions: pH 1.2, pepsin, 37 °C, read-out: t1/2 in artificial gastric juice
# Description: During ADME studies, the concentration of the compounds was analyzed using ultra-performance liquid chromatography (UPLC) coupled with tandem mass spectrometry (MS/MS) in the multiple reaction monitoring (MRM) mode. A quantitative analysis was performed using the internal standard (IS) calibration method, with tolbutamide as the IS.
# The analyses were carried out on a system composed of an Agilent 1290 Infinity UPLC system (Agilent Technologies, USA) connected by ESI interface to a tandem quadrupole mass spectrometer QTRAP 6500 (AB Sciex Corp, Framingham, MA, USA). The separation was conducted on an YMC Triart C18 50 × 2 mm, 1.9 μm column, which was kept at 35 °C. The samples were cooled to 8 °C in an autosampler, and aliquots of 1 µL were delivered onto the column. Elution was performed using gradients of A (0.1% formic acid in water) and B (0.1% formic acid in acetonitrile), at the flow rate 0.35 mL/min. […] The declustering potential was 31 V for BX and 93 V for IS, resepectively; the collision energy was attuned to 17 eV; the collision cell exit potential was 10 V for BX and 8 V for IS MRM, respectively; the analyses were recorded for 305 → 234 (BX) and 271 → 172 (tolbutamide). […]
# [2] = Stability in rat liver microsomes; assay type: in vitro ADME; conditions: NADPH
# Description: The liver metabolism of the substance was studied in the microsomal fractions of human and rat livers (XenoTech HMMCPL, RTMCPL, Kansas City, KS, USA) in the presence of the cofactor of the oxidative enzymes NADPH (AppliChem, Darmstadt, Germany).
# The plate was incubated in a thermal shaker for 10 min at 400 rpm and 37 °C; then, 2.4 µL of 100× stocks of the tested substance was added into each well. A total of 30 µL of 8× cofactor solution was added to each experimental well (two replicates), 30 µL of deionized water was added to one control well, and all wells were mixed three times using a multichannel pipette with a volume of 100 µL. After mixing, the plate was placed in a thermal shaker at 400 rpm and 37 °C. The reactions were terminated at the following time points—0, 5, 10, 15, 20, and 30 min—by transferring 30 µL of the reaction mixture from the corresponding well to 1.1 mL microtubes and adding 180 µL of acetonitrile with internal standard 200 ng/mL tolbutamide (Fluka, Switzerland). To evaluate the stability of the substance in the microsomes without the cofactor, two aliquots were taken from the control well, and the reactions were terminated at 0 and 30 min time points. […] Then, the samples were centrifuged for 10 min at 1500× g, and 150 μL of the supernatant was taken for UPLC–MS/MS analysis.
# [3] = Single-dose acute toxicity, intragastric administration; assay type: in vivo, rat; conditions: both sexes, Wistar, rat, in vivo, po; rats, intragastric, single dose; read-out: maximum tolerated dose
# Description: Before administration, the BX-SI043 substance was resuspended in a 1% starch solution. The animals in the treatment groups received suspensions intragastrically in doses of 2000 mg/kg (administered in two equal doses, with a 30–40 min interval), 1000 mg/kg, 600 mg/kg, and 300 mg/kg (administered in single doses).
# The animals were monitored daily for any abnormalities. On the 2nd, 7th, and 13th days after administration, the animals were clinically evaluated and weighed, and the consumption of feed and water were measured. On the 14th day, the behavior of the animals was evaluated. On the 15th day, the animals were euthanized, and the lungs (with trachea), heart, thymus, liver, kidneys, spleen, stomach, small intestine, colon, brain, adrenal glands, and testes/ovaries were fixed in 10% neutral formalin for histological evaluation.
smiles,measurement,setting,value
"CCOC(=O)c1[nH]c2cc(F)ccc2c1/N=N/N1CCCC1 [BX-SI043, Ethyl (E)-6-fluoro-3-(pyrrolidin-1-yldiazenyl)-1H-indole-2-carboxylate]",half-life at 1 µM,[1],< 10 min
same,microsomal CLint,"[2]; pH 7.4, rat liver microsomes",2140 µL/min/mg
same,Remaining after 30 min,[2]; rat liver microsomes,0.00%
same,t1/2,"[2]; rat liver microsomes, listed as ВХSI043",1.30 min
same,half-life,"[2]; rat, liver microsomes, pH 7.4, rat liver microsomes",1.4 min
same,MTD at 14 days,[3],600 mg/kg
